The source of these data is paper PMC7893052, “Small molecule induces mitochondrial fusion for neuroprotection via targeting CK2 without affecting its conventional kinase activity” (Signal Transduction and Targeted Therapy, 2021).

In test [1] the target is T1, casein kinase 2 α′ subunit (CK2α′) (Homo sapiens, UniProt P19784).
T1 construct: gene CSNK2A2; human recombinant CK2α′ protein
Briefly: ITC ([…]); also SPR KD […], NanoDSF, CETSA, DARTS, pulldown, LC–MS/MS of covalently modified peptide. Format: binding. In general terms: In DSF a fluorescence change marks the thermal transition of the protein.

Test [2] addresses T2, casein kinase 2 α′ subunit (CK2α′) (Homo sapiens, UniProt P19784, R173A).
T2 construct: gene CSNK2A2
T2 sequence (P19784 1-350 R173A): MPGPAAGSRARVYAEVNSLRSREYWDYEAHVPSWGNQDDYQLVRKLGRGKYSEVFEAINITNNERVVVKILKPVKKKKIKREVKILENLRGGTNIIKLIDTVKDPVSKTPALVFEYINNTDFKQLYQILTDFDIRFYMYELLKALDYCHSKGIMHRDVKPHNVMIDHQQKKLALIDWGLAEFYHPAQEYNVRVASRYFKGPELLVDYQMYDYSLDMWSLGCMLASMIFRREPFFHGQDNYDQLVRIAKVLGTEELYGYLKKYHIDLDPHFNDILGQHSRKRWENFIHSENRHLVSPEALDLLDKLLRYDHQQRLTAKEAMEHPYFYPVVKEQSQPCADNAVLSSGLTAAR
Briefly: ITC. The test is classed as binding.

T1 sequence (P19784 whole entry): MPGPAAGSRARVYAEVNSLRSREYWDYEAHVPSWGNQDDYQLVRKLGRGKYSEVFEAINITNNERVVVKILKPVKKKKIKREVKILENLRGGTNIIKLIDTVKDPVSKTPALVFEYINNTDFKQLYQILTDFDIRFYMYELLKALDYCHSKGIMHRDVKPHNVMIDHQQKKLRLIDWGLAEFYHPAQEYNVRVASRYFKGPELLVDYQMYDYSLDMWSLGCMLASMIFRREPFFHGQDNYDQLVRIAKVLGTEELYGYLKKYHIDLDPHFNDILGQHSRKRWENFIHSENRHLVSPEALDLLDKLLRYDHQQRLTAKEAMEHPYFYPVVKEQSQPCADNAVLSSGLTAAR

In general, Kd refers to the concentration at which binding is half-saturated. Lower therefore signals a tighter complex. Regarding `C[C@@H]1O[C@@H](O[C@@H]2[C@@H](O)[C@H](OCCc3ccc(O)c(O)c3)O[C@H](CO[C@@H]3O[C@H](CO)[C@@H](O)[C@H](O)[C@H]3O)[C@H]2OC(=O)/C=C/c2ccc(O)c(O)c2)[C@H](O)[C@H](O)[C@H]1O` [ECH, echinacoside], the Kd turned out to be 1.06 µM in test [1] and 0.413 µM in test [2].
